How the values were obtained:
[1] = test system: phosphorylation of RSK1(S380) (the downstream target of ERK1/2); assay: Phospho-RSK1(S380) ELISA assay in HT-29 cells; type: cell-based, human; settings: Homo sapiens, HT-29, HT29 cells, phospho-RSK1(S380); read-out: Mechanistic Cell Assay RSK1 Phos HT29 IC50
Protocol: Phospho-RSK1(S380) ELISA Assay
HT-29 cells (colorectal carcinoma, B-RafV600E); obtained from ATCC, USA) were seeded (60,000 cells/well) in a 96-well plate and incubated at 37° C./5% CO2 overnight and then treated with desired compound dilutions for 2 h. Medium was removed and cells were rinsed once with ice-cold 1×PBS, then 0.070 mL ice-cold 1× cell lysis buffer containing 1 mM PMSF was added to each well and the plate was incubated on a shaker for 2 h and 30 min at 4° C. The plate was then centrifuged for 20 min (×4000 rpm) at 4° C. and the supernatant was transferred to a new plate. Cell lysates were diluted with sample diluent at a ratio of 1:1. The ELISA was then carried out following the manufacturer's protocol (PathScan® phospho-RSK1(Ser380) Sandwich ELISA Kit, Cell Signaling Technologies). The plate was read at 450 nm within 30 min after adding STOP solution. The IC50 values were subsequently determined using a sigmoidal dose-response curve (variable slope) in GraphPad Prism® 5 software.

[2] = test system: HCT116 (colorectal carcinoma, K Ras G13D) cells; assay: Cell proliferation (Alamar Blue) assay, HCT116; type: cell-based, human; settings: Homo sapiens, HCT-116, HCT116 cells
Procedure, shortened: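 Cells seeded at 5000/well and allowed 16-24 h at 37° C./5% CO2, then exposed to compound (typically 0.0005-10 uM, 3-fold serial dilutions) for 72 h. Viability was read by Alamar Blue fluorescence (ex 540/em 590 nm) after 1-3 h. IC50 came from a variable-slope sigmoidal dose-response fit.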

SMILES | IC50 [1] [nM] | IC50 [2] [nM]
Cc1cnc(Nc2ccc(F)cc2)nc1-n1cnc(C(=O)N[C@H](CN)c2cccc(Cl)c2)c1 [Example 248, (S)-N-(2-amino-1-(3-chlorophenyl)ethyl)-1-(2-((4-fluorophenyl)amino)-5-methylpyrimidin-4-yl)-1H-imidazole-4-carboxamide] | 100 to 250 | ≤ 100
Cc1cnc(Nc2ccc(F)cc2)nc1-n1cnc(C(=O)N[C@@H](CN)c2cccc(Cl)c2)c1 [Example 249, (R)-N-(2-amino-1-(3-chlorophenyl)ethyl)-1-(2-((4-fluorophenyl)amino)-5-methylpyrimidin-4-yl)-1H-imidazole-4-carboxamide] | 500 to 2500 | 500 to 2500
Cc1cnc(NC2CCOC(C)C2)nc1-n1cnc(C(=O)N[C@H](CO)c2cccc(Cl)c2)c1 (stereo partly drawn) [Example 251, N-((S)-1-(3-chlorophenyl)-2-hydroxyethyl)-1-(5-methyl-2-((2-methyltetrahydro-2H-pyran-4-yl)amino)pyrimidin-4-yl)-1H-imidazole-4-carboxamide] | ≤ 100 | 250 to 500
Cc1cnc(Nc2ccc(F)c(N3CCOCC3)c2)nc1-n1cnc(C(=O)NC(CN)c2cccc(Cl)c2)c1 (stereo not shown) [Example 256, N-(2-amino-1-(3-chlorophenyl)ethyl)-1-(2-((4-fluoro-3-morpholinophenyl)amino)-5-methylpyrimidin-4-yl)-1H-imidazole-4-carboxamide] | ≤ 100 | ≤ 100
Cc1cnc(NC2CCOCC2)nc1-n1cnc(C(=O)NC(CO)c2ccc(Cl)s2)c1 (stereo not shown) [Example 257, N-(1-(5-chlorothiophen-2-yl)-2-hydroxyethyl)-1-(5-methyl-2-((tetrahydro-2H-pyran-4-yl)amino)pyrimidin-4-yl)-1H-imidazole-4-carboxamide] | 250 to 500 | > 2500
Cc1cnc(NC2CCOCC2)nc1-n1cnc(C(=O)NC(CO)c2cccc(C(C)(C)C)c2)c1 (stereo not shown) [Example 258, N-(1-(3-(tert-butyl)phenyl)-2-hydroxyethyl)-1-(5-methyl-2-((tetrahydro-2H-pyran-4-yl)amino)pyrimidin-4-yl)-1H-imidazole-4-carboxamide] | 250 to 500 | 500 to 2500
Cc1cnc(NC(CO)CO)nc1-n1cnc(C(=O)N[C@H](CO)c2cccc(Cl)c2)c1 [Example 260, (S)-N-(1-(3-chlorophenyl)-2-hydroxyethyl)-1-(2-((1,3-dihydroxypropan-2-yl)amino)-5-methylpyrimidin-4-yl)-1H-imidazole-4-carboxamide] | > 2500 | > 2500
Cc1ccc(C(CO)NC(=O)c2cn(-c3nc(NC4CCOCC4)ncc3C)cn2)s1 (stereo not shown) [Example 261, N-(2-hydroxy-1-(5-methylthiophen-2-yl)ethyl)-1-(5-methyl-2-((tetrahydro-2H-pyran-4-yl)amino)pyrimidin-4-yl)-1H-imidazole-4-carboxamide] | 500 to 2500 | > 2500
Cc1cnc(Nc2ccc(F)cc2)nc1-n1cnc(C(=O)NCc2cccc(Cl)c2CO)c1 [Example 262, N-(3-chloro-2-(hydroxymethyl)benzyl)-1-(2-((4-fluorophenyl)amino)-5-methylpyrimidin-4-yl)-1H-imidazole-4-carboxamide] | ≤ 100 | 500 to 2500
Cc1cnc(N[C@@H]2CCOC2)nc1-n1cnc(C(=O)N[C@H](CN)c2cccc(Cl)c2)c1 [Example 264, N-((S)-2-amino-1-(3-chlorophenyl)ethyl)-1-(5-methyl-2-(((R)-tetrahydrofuran-3-yl)amino)pyrimidin-4-yl)-1H-imidazole-4-carboxamide] | ≤ 100 | 100 to 250
Cc1cnc(N[C@@H]2CCOC2)nc1-n1cnc(C(=O)N[C@H](CO)c2cccc(Cl)c2)c1 [Example 265, N-((S)-1-(3-chlorophenyl)-2-hydroxyethyl)-1-(5-methyl-2-(((R)-tetrahydrofuran-3-yl)amino)pyrimidin-4-yl)-1H-imidazole-4-carboxamide] | 250 to 500 | 100 to 250

From patent US11925629B2, “Heterocyclic inhibitors of ERK1 and ERK2 and their use in the treatment of cancer” (Asana Biosciences, LLC, priority 2015, dated 2024)
